In patent publication US10266526B2, “Substituted 1,2,3-triazoles as SMYD inhibitors for treating cancer” (EPIZYME, INC., priority 2014, dated 2019):
pIC50: −log10 of the molar value.

target: SMYD2 (Homo sapiens (Human), UniProt Q9NRG4); assay: SMYD2 biochemical assay (SMYD2 enzyme assay on peptide substrate, 3H-SAM Flashplate); conditions: read-out: SMYD2 Biochem IC50; IC50 values are an average of n = 1 to n = 50
Sequence (Q9NRG4 whole entry): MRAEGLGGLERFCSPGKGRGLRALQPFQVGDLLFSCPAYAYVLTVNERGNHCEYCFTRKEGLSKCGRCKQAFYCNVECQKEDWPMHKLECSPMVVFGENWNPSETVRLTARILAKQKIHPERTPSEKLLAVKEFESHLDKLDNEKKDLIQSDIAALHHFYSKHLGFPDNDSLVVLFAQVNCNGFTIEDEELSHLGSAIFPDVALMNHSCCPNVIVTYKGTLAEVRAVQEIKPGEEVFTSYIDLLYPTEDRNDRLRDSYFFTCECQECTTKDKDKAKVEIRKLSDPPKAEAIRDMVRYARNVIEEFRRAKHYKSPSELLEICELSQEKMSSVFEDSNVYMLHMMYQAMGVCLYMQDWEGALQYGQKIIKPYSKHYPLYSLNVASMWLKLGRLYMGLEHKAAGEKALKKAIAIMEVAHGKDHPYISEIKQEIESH

pIC50	Structure (SMILES)
5.59	COc1cc(C(C)N2CC(NC(=O)c3cn(C4CC4)nn3)C2)ccc1F (stereo not drawn) [compound 732, 1-cyclopropyl-N-{1-[1-(4-fluoro-3-methoxyphenyl)ethyl]azetidin-3-yl}-1H-1,2,3-triazole-4-carboxamide]
7.06	Cc1ccc(COc2ccc(C(C)N3CC(NC(=O)c4cn(C5CC5)nn4)C3)cc2)cc1 (stereo not drawn) [compound 971, 1-cyclopropyl-N-(1-(1-(4-((4-methylbenzyl)oxy)phenyl)ethyl)azetidin-3-yl)-1H-1,2,3-triazole-4-carboxamide]
5.79	CC(c1ccc2c(c1)NC(=O)CO2)N1CC(NC(=O)c2cn(C3CC3)nn2)C1 (stereo not drawn) [compound 774, 1-cyclopropyl-N-{1-[1-(3-oxo-3,4-dihydro-2H-1,4-benzoxazin-6-yl)ethyl]azetidin-3-yl}-1H-1,2,3-triazole-4-carboxamide]
6.09	CC(c1ccc2c(c1)OCO2)N1CC(NC(=O)c2cn(C3CC3)nn2)C1 (stereo not drawn) [compound 691, N-{1-[1-(2H-1,3-benzodioxol-5-yl)ethyl]azetidin-3-yl}-1-cyclopropyl-1H-1,2,3-triazole-4-carboxamide]
5.97	CC(c1ccc(Oc2ccccc2)cc1)N1CC(NC(=O)c2cn(C3CC3)nn2)C1 (stereo not drawn) [compound 739, 1-cyclopropyl-N-{1-[1-(4-phenoxyphenyl)ethyl]azetidin-3-yl}-1H-1,2,3-triazole-4-carboxamide]
5.50	CC(=O)Nc1cccc(C(C)N2CC(NC(=O)c3cn(C4CC4)nn3)C2)c1 (stereo not drawn) [compound 783, 1-cyclopropyl-N-{1-[1-(3-acetamidophenyl)ethyl]azetidin-3-yl}-1H-1,2,3-triazole-4-carboxamide]
6.31	CC(c1cccc(Cl)c1Cl)N1CC(NC(=O)c2cn(C3CC3)nn2)C1 (stereo not drawn) [compound 743, 1-cyclopropyl-N-{1-[1-(2,3-dichlorophenyl)ethyl]azetidin-3-yl}-1H-1,2,3-triazole-4-carboxamide]
5.12	CC(c1cccc(OCCN(C)C)c1Cl)N1CC(NC(=O)c2cn(C3CC3)nn2)C1 (stereo not drawn) [compound 977, N-(1-(1-(2-chloro-3-(2-(dimethylamino)ethoxy)phenyl)ethyl)azetidin-3-yl)-1-cyclopropyl-1H-1,2,3-triazole-4-carboxamide]
6.11	CC(c1ccc(OCCc2ccccc2)cc1)N1CC(NC(=O)c2cn(C3CC3)nn2)C1 (stereo not drawn) [compound 853, 1-cyclopropyl-N-(1-{1-[4-(2-phenylethoxy)phenyl]ethyl}azetidin-3-yl)-1H-1,2,3-triazole-4-carboxamide]
6.02	COc1cc(OCc2ccccc2)ccc1C(C)N1CC(NC(=O)c2cn(C3CC3)nn2)C1 (stereo not drawn) [compound 800, N-(1-{1-[4-(benzyloxy)-2-methoxyphenyl]ethyl}azetidin-3-yl)-1-cyclopropyl-1H-1,2,3-triazole-4-carboxamide]
5.79	COc1cnc(C(C)N2CC(NC(=O)c3cn(C4CC4)nn3)C2)nc1 (stereo not drawn) [compound 865, 1-cyclopropyl-N-{1-[1-(5-methoxypyrimidin-2-yl)ethyl]azetidin-3-yl}-1H-1,2,3-triazole-4-carboxamide]

The next lines start with the compound.

Structure (SMILES)	pIC50
O=C(NC1CN(Cc2cn(Cc3ccccc3)nn2)C1)c1cn(C2CC2)nn1 [compound 931, N-(1-((1-benzyl-1H-1,2,3-triazol-4-yl)methyl)azetidin-3-yl)-1-cyclopropyl-1H-1,2,3-triazole-4-carboxamide]	4.95
O=C(NC1CN(C(c2ccc(OCc3ccccc3)cc2)C(F)(F)F)C1)c1cn(C2CC2)nn1 (stereo not drawn) [compound 816, N-(1-{1-[4-(benzyloxy)phenyl]-2,2,2-trifluoroethyl}azetidin-3-yl)-1-cyclopropyl-1H-1,2,3-triazole-4-carboxamide]	< 4.30
COc1ccc2c(c1)CCCC2N1CC(NC(=O)c2cn(C3CC3)nn2)C1 (stereo not drawn) [compound 793, 1-cyclopropyl-N-[1-(6-methoxy-1,2,3,4-tetrahydronaphthalen-1-yl)azetidin-3-yl]-1H-1,2,3-triazole-4-carboxamide]	5.00
CC(C)(C)c1ccc(Cn2cc(CN3CC(NC(=O)c4cn(C5CC5)nn4)C3)cn2)cc1 [compound 947, N-(1-((1-(4-(tert-butyl)benzyl)-1H-pyrazol-4-yl)methyl)azetidin-3-yl)-1-cyclopropyl-1H-1,2,3-triazole-4-carboxamide]	7.25
O=C(NC1CN(Cc2ccccc2)C1)c1cn(C2CC2)nn1 [compound 672, N-(1-benzylazetidin-3-yl)-1-cyclopropyl-1H-1,2,3-triazole-4-carboxamide]	5.81
CC(C)N1CC(NC(=O)c2cn(C3CC3(F)F)nn2)C1 (stereo not drawn) [compound 770, 1-(2,2-difluorocyclopropyl)-N-[1-(propan-2-yl)azetidin-3-yl]-1H-1,2,3-triazole-4-carboxamide]	5.38
CNC(=O)c1ccc(COc2ccc(C(C)N3CC(NC(=O)c4cn(C5CC5)nn4)C3)cc2)cc1 (stereo not drawn) [compound 963, 1-cyclopropyl-N-(1-(1-(4-((4-(methylcarbamoyl)benzyl)oxy)phenyl)ethyl)azetidin-3-yl)-1H-1,2,3-triazole-4-carboxamide]	6.01
CN(C)CCCN1CC(NC(=O)c2cn(C3CC3)nn2)C1 [compound 708, 1-cyclopropyl-N-{1-[3-(dimethylamino)propyl]azetidin-3-yl}-1H-1,2,3-triazole-4-carboxamide]	< 4.30
CC(c1cccc(OCCO)c1Cl)N1CC(NC(=O)c2cc(C3CC3)ccn2)C1 (stereo not drawn) [compound 964, N-(1-(1-(2-chloro-3-(2-hydroxyemoxy)phenyl)ethyl)azetidin-3-yl)-4-cyclopropylpicolinamide]	4.98
COc1ccccc1[C@H](C)N1CC(NC(=O)c2cc(C3CC3)cnn2)C1 [compound 841, 5-cyclopropyl-N-{1-[(1S)-1-(2-methoxyphenyl)ethyl]azetidin-3-yl}pyridazine-3-carboxamide]	5.30
O=C(NC1CN(Cc2ccc(OCc3cccnc3)cc2)C1)c1cn(C2CC2)nn1 [compound 972, 1-cyclopropyl-N-(1-(4-(pyridin-3-ylmemoxy)benzyl)azetidin-3-yl)-1H-1,2,3-triazole-4-carboxamide]	5.89
CC(C)N1CCCC(NC(=O)c2cn(C3CC3)nn2)C1 (stereo not drawn) [compound 808, 1-cyclopropyl-N-[1-(propan-2-yl)piperidin-3-yl]-1H-1,2,3-triazole-4-carboxamide]	4.70
O=C(NC1CN(Cc2cnn(Cc3ccc(Cl)cc3)c2)C1)c1cn(C2CC2)nn1 [compound 985, N-(1-((1-(4-Chlorobenzyl)-1H-pyrazol-4-yl)methyl)azetidin-3-yl)-1-cyclopropyl-1H-1,2,3-triazole-4-carboxamide]	8.41
Cn1cnc(CN2CC(NC(=O)c3cn(C4CC4)nn3)C2)c1 [compound 733, 1-cyclopropyl-N-{1-[(1-methyl-1H-imidazol-4-yl)methyl]azetidin-3-yl}-1H-1,2,3-triazole-4-carboxamide]	5.17
O=C(NC1CN(Cc2cnn(Cc3ccc4scnc4c3)c2)C1)c1cn(C2CC2)nn1 [compound 936, N-(1-((1-(benzo[d]thiazol-5-ylmethyl)-1H-pyrazol-4-yl)methyl)azetidin-3-yl)-1-cyclopropyl-1H-1,2,3-triazole-4-carboxamide]	7.10
CNC1CCOC(CN2CC(NC(=O)c3cn(C4CC4)nn3)C2)C1 (stereo not drawn) [compound 758, 1-cyclopropyl-N-(1-{[4-(methylamino)oxan-2-yl]methyl}azetidin-3-yl)-1H-1,2,3-triazole-4-carboxamide]	< 4.30
